The text below walks through data of patent US9511052B2, “Mineralocorticoid receptor antagonists” (Merck Sharp & Dohme Corp., priority 2012, dated 2016).

The structures appear in SMILES notation.

One series is described as follows: PK profile in rats. It counts as in vivo, rat.
The target of series [1] is T1, full-length human Mineralocorticoid Receptor (MR) (Homo sapiens, UniProt P08235).
T1 construct: host or cells: PathHunter CHO-K1 MR cells
T1 sequence (P08235 1-984): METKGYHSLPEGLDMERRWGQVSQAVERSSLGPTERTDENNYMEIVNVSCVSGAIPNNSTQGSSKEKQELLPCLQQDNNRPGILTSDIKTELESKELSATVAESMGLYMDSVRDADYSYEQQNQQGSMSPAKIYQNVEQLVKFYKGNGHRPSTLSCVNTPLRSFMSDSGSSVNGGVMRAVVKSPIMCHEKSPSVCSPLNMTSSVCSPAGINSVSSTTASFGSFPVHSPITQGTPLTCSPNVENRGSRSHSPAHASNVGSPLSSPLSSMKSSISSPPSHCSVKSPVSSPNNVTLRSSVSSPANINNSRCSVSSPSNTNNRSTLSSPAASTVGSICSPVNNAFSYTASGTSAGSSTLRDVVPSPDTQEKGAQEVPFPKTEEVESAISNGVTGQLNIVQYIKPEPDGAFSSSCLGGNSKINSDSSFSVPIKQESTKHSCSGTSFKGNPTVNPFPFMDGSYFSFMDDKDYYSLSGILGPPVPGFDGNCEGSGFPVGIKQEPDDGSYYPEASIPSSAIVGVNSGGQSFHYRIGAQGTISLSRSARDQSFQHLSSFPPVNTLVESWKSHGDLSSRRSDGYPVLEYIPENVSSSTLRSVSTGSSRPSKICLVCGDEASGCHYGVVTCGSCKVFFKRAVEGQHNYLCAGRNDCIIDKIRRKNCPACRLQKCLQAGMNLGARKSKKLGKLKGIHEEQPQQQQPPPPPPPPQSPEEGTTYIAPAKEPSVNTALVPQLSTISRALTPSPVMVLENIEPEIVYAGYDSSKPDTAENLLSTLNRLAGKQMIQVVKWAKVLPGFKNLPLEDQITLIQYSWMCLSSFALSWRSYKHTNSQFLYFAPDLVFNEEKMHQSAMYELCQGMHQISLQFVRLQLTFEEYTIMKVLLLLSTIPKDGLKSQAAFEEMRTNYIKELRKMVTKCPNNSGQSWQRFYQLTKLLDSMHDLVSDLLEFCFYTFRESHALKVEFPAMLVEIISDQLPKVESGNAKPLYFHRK
Put plainly: human MR NH Pro assay (PathHunter Protein:Protein interaction assay), MR antagonism. The conditions noted are these: IP = inflection point of the dose-response curve; CHO-K1 cells overexpressing human MR, aldosterone about 0.3 nM to about 1 nM, 6 hours at 37° C. In kind it is cell-based. From the text: The activity of the compounds of the present invention regarding mineralocorticoid receptor antagonism can be evaluated using the following assay.
Assessment of MR Potency in HMR NH Pro Assay
The human MR NH Pro assay is a commercially available PathHunter™ Protein:Protein interaction assay (DiscoveRx; http://www.discoverx.com/nhrs/prod-nhrs.php) that measures the ability of compounds to antagonize full-length human Mineralocorticoid Receptor (MR) binding to a coactivator peptide.
Stock solution was prepared at 10 μM in DMSO and stored at −20° C. for assay, dilute in assay media to 1.8 or 6 nM (6× of final concentration=about 0.3 nM to about 1.0 nM)
5. Cell line: PathHunter CHO-K1 MR cells Cat #93-0456C2, Lot No: 09B0913, from operation liquid nitrogen stock.
6. Control Antagonist: Spironolactone: Sigma #S-3378 and Eplerenone Sigma #107724-20-9 (10 mM stock concentration also prepared in DMSO and stored at −20° C.).
1. Cells are grown in F12+FBS+Hygromycin+pen/strep+Genetin
2. Cells are collected with 0.05% trypsin and the cell suspension is spun and resuspended in a volume of F12+1.5% CD-FBS and counted.
3. The cells concentration was adjusted to 4×10^5 cells/mL.
4. Cells were (25 μL/well) added to the wells of a 384 well plate.
5. The plate was then incubated at 37° C. over night in a humidified incubator with 5% CO2.
6. Test compounds were titrated starting at 4.4 mM, 10-point titration in 1:3 dilution.
Protocol for 384 well plate format: 6 hr treatment:
1. 10K exponentially growing cells/well (25 μL) were resuspended in assay media and plated into each well using the Multidrop (Thermo Electron) (use white wall, clear bottom assay plates (Costar #3570) and incubated overnight at 37° C., 5% CO2.
2. 0.25 μL 120× test compound (final DMSO concentration should be <1%) was added to each well n=2, 10 point titrations starting at 36.7 μM final concentration.
4. 5 μL of assay media was added to all wells in column 23 and 24.
5. Cells were then incubated for 6 hrs at 37° C., 5% CO2.
6. 15 μL 3× DiscoveRx detection reagent was then added to each well.
7. Plates were incubated for 1 hour at room temperature in the dark.
8. Plates were read on Envision (PerkinElmer) luminesence plate reader and analyzed using ADA.

A short description of series [2]: Metabolic stability in liver microsome and hepatocytes of multiple animal species (overall statement). It counts as in vitro ADME.
Series [3] is described as follows: Hepatocyte stability, human. The settings on record: human, hepatocytes; read-out: Hepatocyte Stability (t1/2). In kind it is in vitro ADME.
Series [4] in a line: Hepatocyte stability, rhesus monkey. In kind it is in vitro ADME. The settings on record: hepatocytes, read-out: Hepatocyte Stability (t1/2).
Series [5] can be described thus: Liver microsome stability, dog. It counts as in vitro ADME. The conditions noted are these: liver microsomes, read-out: Liver Microsome Stability (t1/2).
The nature of series [6]: Hepatocyte stability, dog. In kind it is in vitro ADME. The conditions noted are these: hepatocytes, read-out: Hepatocyte Stability (t1/2).
Series [7] can be described thus: Liver microsome stability, human. It counts as in vitro ADME. The settings on record: human, liver microsomes; read-out: Liver Microsome Stability (t1/2).
A short description of series [8]: Liver microsome stability, rhesus monkey. It counts as in vitro ADME. The conditions noted are these: liver microsomes, read-out: Liver Microsome Stability (t1/2).
A short description of series [9]: Hepatocyte stability, rat. In kind it is in vitro ADME. The settings on record: hepatocytes, read-out: Hepatocyte Stability (t1/2).
The nature of series [10]: Liver microsome stability, rat. It counts as in vitro ADME. The conditions noted are these: liver microsomes, read-out: Liver Microsome Stability (t1/2).

As for `CC(O)C(CC(F)F)(c1ccc(C(F)(F)F)cc1)n1ncc2c(NS(C)(=O)=O)cccc21` (single isomer, unassigned) [Compound 35, N-(1-(1,1-difluoro-4-hydroxy-3-(4-(trifluoromethyl)phenyl)pentan-3-yl)-1H-indazol-4-yl)methanesulfonamide], the “PK profile in rats (in words)” value in “PK profile in rats” is on record as “good PK profile”. Further, the AUCN po in “PK profile in rats” (po) is 2.7 µM·kg·h/mg. Also, in “PK profile in rats” (rat, in vivo), the clearance turned out to be 0.84 L/h/kg and the half-life was 7 h. This molecule also yielded a bioavailability in the series “PK profile in rats” (rat, in vivo, oral) of 98%. This molecule also came in with an IC50 in series [1] of 0.05 µM. For the same molecule, in series [2], the “metabolic stability in liver microsome and hepatocytes of multiple animal species (in words)” value is given as “good metabolic stability”.
For `CC(O)C(CC(F)F)(c1ccc(C(F)(F)F)cc1)n1ncc2c(NS(C)(=O)=O)cccc21` (single isomer, unassigned) [Compound 37, N-(1-(1,1-difluoro-4-hydroxy-3-(4-(trifluoromethyl)phenyl)pentan-3-yl)-1H-indazol-4-yl)methanesulfonamide], the half-life was > 1.5 h in [3]; > 1.5 h in series [4]; 0.967 h in series [5]; 1.32 h in series [6]; 1.43 h in series [7]; 2.05 h in series [8]. Also, the half-life in series [9] is > 1.5 h; in series [10], 2.03 h. The same molecule yielded a half-inhibitory concentration (IC50) in series [1] of 0.066 µM.
`CS(=O)(=O)Nc1cccc2c1cnn2C(CO)(CC(F)F)c1ccc(C(F)(F)F)cc1` (single isomer, unassigned) [Compound 43, N-(1-(4,4-difluoro-1-hydroxy-2-(4-(trifluoromethyl)phenyl)butan-2-yl)-1H-indazol-4-yl)methanesulfonamide] returned an IC50 in series [1] of 0.388 µM.
Still for that read-out and setting: with `CS(=O)(=O)Nc1cccc2c1cnn2C(CO)(CC(F)F)c1ccc(C(F)(F)F)cc1` (single isomer, unassigned) [Compound 44, N-(1-(4,4-difluoro-l-hydroxy-2-(4-(trifluoromethyl)phenyl)butan-2-yl)-1H-indazol-4-yl)methanesulfonamide] the figure was 0.539 µM.
With `CS(=O)(=O)Nc1cccc2c1cnn2C(CC(F)F)(C(N)=O)c1ccc(C(F)(F)F)cc1` (single isomer, unassigned) [Compound 45, 4,4-difluoro-2-(4-(methylsulfonamido)-1H-indazol-1-yl)-2-(4-(trifluoromethyl)phenyl)butanamide], in [1], the IC50 came to 0.274 µM.
For the molecule `CCC(c1ccc(C(F)(F)F)cc1)(C(O)C(F)F)n1ncc2c(NS(C)(=O)=O)cccc21` (single isomer, unassigned) [Compound 48, N-(1-(1,1-difluoro-2-hydroxy-3-(4-(trifluoromethyl)phenyl)pentan-3-yl)-1H-indazol-4-yl)methanesulfonamide], in series [1], the IC50 was 0.006 µM.
Molecule `CCC(c1ccc(C(F)(F)F)cc1)(C(O)C(F)F)n1ncc2c(NS(=O)(=O)CC)cccc21` (single isomer, unassigned) [Compound 49, N-(1-(1,1-difluoro-2-hydroxy-3-(4-(trifluoromethyl)phenyl)pentan-3-yl)-1H-indazol-4-yl)ethanesulfonamide] displayed a concentration for half-maximal inhibition (IC50) in series [1] of 0.007 µM.
Regarding `CCC(c1ccc(C(F)(F)F)cc1)(C(O)C(F)F)n1ncc2c(NS(=O)(=O)CC)cccc21` (single isomer, unassigned) [Compound 50, N-(1-(1,1-difluoro-2-hydroxy-3-(4-(trifluoromethyl)phenyl)pentan-3-yl)-1H-indazol-4-yl)ethanesulfonamide], the IC50 in [1] came to 0.004 µM.
On to `CCC(c1ccc(C(F)(F)F)cc1)(C(O)C(F)F)n1ncc2c(NS(C)(=O)=O)cc(F)cc21` (single isomer, unassigned) [Compound 51, N-(1-(1,1-difluoro-2-hydroxy-3-(4-(trifluoromethyl)phenyl)pentan-3-yl)-6-fluoro-1H-indazol-4-yl) methanesulfonamide], for which it took 0.013 µM to reach half-maximal inhibition in [1] (IC50).
`CCC(c1ccc(C(F)(F)F)cc1)(C(O)C(F)F)n1ncc2c(NS(C)(=O)=O)cc(F)cc21` (single isomer, unassigned) [Compound 52, N-(1-(1,1-difluoro-2-hydroxy-3-(4-(trifluoromethyl)phenyl)pentan-3-yl)-6-fluoro-1H-indazol-4-l) methanesulfonamide] yielded an IC50 in series [1] of 0.028 µM.
The same measure, in the same setting: the figure for `CCC(c1ccc(C(F)(F)F)cc1)(C(O)C(F)F)n1ncc2c(NS(=O)(=O)CC)cc(F)cc21` (single isomer, unassigned) [Compound 53, N-(1-(1,1-difluoro-2-hydroxy-3-(4-(trifluoromethyl)phenyl)pentan-3-yl)-6-fluoro-1H-indazol-4-yl)ethanesulfonamide] is 0.011 µM; for `CCC(c1ccc(C(F)(F)F)cc1)(C(O)C(F)F)n1ncc2c(NS(=O)(=O)CC)cc(F)cc21` (single isomer, unassigned) [Compound 54, N-(1-(1,1-difluoro-2-hydroxy-3-(4-(trifluoromethyl)phenyl)pentan-3-yl)-6-fluoro-1H-indazol-4-l)ethanesulfonamide] it is 0.012 µM.
The same measure, in the same setting: the figure for `CCC(O)C(CC(F)F)(c1ccc(C(F)(F)F)cc1)n1ncc2c(NS(=O)(=O)CC)cccc21` (single isomer, unassigned) [Compound 55, N-(1-(1,1-difluoro-4-hydroxy-3-(4-(trifluoromethyl)phenyl)hexan-3-yl)-1H-indazol-4-yl)ethanesulfonamide] is 0.018 µM.
On the same count and under the same terms, with `CCC(O)C(CC(F)F)(c1ccc(C(F)(F)F)cc1)n1ncc2c(NS(=O)(=O)CC)cccc21` (single isomer, unassigned) [Compound 56, N-(1-(1,1-difluoro-4-hydroxy-3-(4-(trifluoromethyl)phenyl)hexan-3-yl)-1H-indazol-4-yl)ethanesulfonamide] the figure was 0.01 µM.
Molecule `CCS(=O)(=O)Nc1cccc2c1cnn2C(CC(F)F)(c1ccc(C(F)(F)F)cc1)C(C)O` (single isomer, unassigned) [Compound 57, N-(1-(1,1-difluoro-4-hydroxy-3-(4-(trifluoromethyl)phenyl)pentan-3-yl)-1H-indazol-4-yl)ethanesulfonamide] yielded an IC50 in series [1] of 0.043 µM.
On the same count and under the same terms, the figure for `CCS(=O)(=O)Nc1cccc2c1cnn2C(CC(F)F)(c1ccc(C(F)(F)F)cc1)C(C)O` (single isomer, unassigned) [Compound 58, N-(1-(1,1-difluoro-4-hydroxy-3-(4-(trifluoromethyl)phenyl)pentan-3-yl)-1H-indazol-4-yl)ethanesulfonamide] is 0.038 µM.
